Where two headings read alike, the source gives them in different places.
Experiments:
Desmodesmus subspicatus = type: cell-based
Protocol: Suppl. Fig. 6. Freshwater microalgae toxicity test. Acute toxicity was tested by assessing algal growth inhibition applying Desmodesmus subspicatus according to OECD guideline number 201. Growth inhibition tests were performed using an initial cell density of 5 x 10^3 cells/ml (= OD680 of 0.005). The cells were maintained in 250 mL flasks containing 100 mL of sterile OECD algal medium at 22°C at 130 rpm illuminated with 3000 lux. Cell density was detected photospectrometrically at λ680 nm in 24 h intervals in algae cultures treated with the respective flame retardants. Experiments were performed by BMG Engineering Ltd., […]
(1 picture or pasted object on this page, not shown here)

[1] = tested on: THP-1 monocytes differentiated into macrophages; assay: Acute cytotoxicity, MTS reduction, THP-1 macrophages; type: cell-based, human; details: 48 h; for cell damage (viability, MTS reduction): concentrations as high as 400 µM; for concentration producing acute toxicity: MTS
Protocol: The human monocytic cell line THP-1 (ATCC: TIB-202) was grown as cell suspension in complete cell culture medium under standard growth conditions. Subculturing was performed by replacement of the medium when the cell density reached 8 × 10^5 cells/mL. Cell concentrations were not allowed to exceed 10^6 cells/mL. To differentiate THP-1 monocytes into macrophages, cells were grown in the presence of 200 nM phorbol-12-myristate-13-acetate (PMA; Sigma-Aldrich) for 72 h. For viability assessment, 8 × 10^4 cells per well were seeded in 200 µL complete cell culture medium containing 200 nM PMA in a 96-well plate and differentiated for 72 h under standard growth conditions. Thereafter, the medium was removed, the cells were washed twice with pre-warmed phosphate-buffered saline (PBS), and increasing concentrations of flame retardants or CdSO4 were added in 200 µL complete cell culture medium per well for 48 h. CellTiter96® AQueous One Solution (Promega, Switzerland) containing MTS (3-(4,5-dimethylthiazol-2-yl)-5-(3-carboxymethoxy-phenyl)-2-(4-sulfophenyl)-2H) as a water-soluble tetrazolium compound was used according to the manufacturer’s protocol. Absorption was detected at 490 nm.

human neural crest cells = assay: Neural crest cell (NCC) migration assay; type: cell-based; details: for cell migration / cell viability / concentration range in which migration was far more affected than cell viability: NCC, 24 h
Protocol: Human embryogenic stem cells (H9 hESC line; Wisconsin International Stem Cell Bank, Madison, WI, USA) were plated on a confluent layer of mitomycin C-treated murine bone marrow-derived stromal MS5 cells and differentiated as previously described (Lee et al. [2010]; Zimmer et al. [2012]). After 21 days, rosettes were picked and plated onto poly-L-ornithine/laminin/fibronectin-coated plates in N2 medium. After 7 days, cells were FACS-sorted for positive expression of the neural crest marker human natural killer-1 (HNK-1) and expanded in N2 medium supplemented with epidermal growth factor (EGF, 20 ng/mL) and fibroblast growth factor (FGF2, 20 ng/mL). For expansion, the cells were passaged every 6 days using accutase (PAA, Pasching, Austria) to detach the cells. After 30 days of expansion, the cells were cryopreserved in 90 % fetal bovine serum, 10 % DMSO. For the analysis of neural crest cell migration, silicone stoppers (Platypus Technologies, Madison, WI, USA) were inserted in a 96-well plate coated with poly-L-ornithine/laminin/fibronectin. Freshly thawed NCCs were seeded at a density of 100,000 cells/cm^2 in N2 medium containing EGF and FGF2 and allowed to attach for 1 day. Stoppers were removed, and the cells were allowed to migrate into the center of the well. Compounds tested in this study were diluted from a 10 mM stock in DMSO and were applied for 24 h. For single cell detection, cells were stained with H-33342 (1 µg/mL) and calcein-AM (0.5 µM) and imaged using a high content imaging microscope (Cellomics ArrayScanVTI, Thermo Fischer). Viability was assessed by counting the number of H-33342 and calcein double-positive cells outside the migration zone. Migration was detected by acquisition of the number of H-33342 and calcein double-positive cells in the migration area.

Daphnia magna = assay: Acute daphnia immobilization test (OECD guideline 202); type: in vivo; details: for daphnia viability: at concentrations ≤400 µM (abstract); for Immobile Daphnia after 48 h: 20 individuals
Protocol: Loading Num ber of I m m obile rate Replicat e individuals Da phnia
(mg/l) per test af t er 48 h
Suppl. Fig. 5. Freshwater microcrustacean toxicity test. Acute toxicity was determined in Daphnia magna according to the standardized OECD guidelines number 202 test, performed by BMG Engineering Ltd., Schlieren, Switzerland. Daphnia were cultured in aerated Elendt M4 medium at a constant temperature of 21°C under a 16:8 light/dark photoperiod. The water soluble fraction of the indicated concentrations of flame retardants were added for 48 h.
Mortality was assessed by the detection of movement analysis. Immobile Daphnia were defined as those animals displaying no movement within a 15 s period following shaking of […]

[2] = at concentrations ≤400 µM (abstract)
[3] = concentrations as high as 100 µM
[4] = highest tested concentrations, water-soluble fraction of 1000 mg/L (approximately 2 mM)
[5] = loading rate 10 mg/l, replicate A
[6] = loading rate 10 mg/l, replicate B
[7] = loading rate 100 mg/l, replicate A
[8] = loading rate 100 mg/l, replicate B
[9] = loading rate 1000 mg/l, replicate A
[10] = loading rate 1000 mg/l, replicate B

SMILES | algae growth (Desmodesmus subspicatus; [2]) | cell damage (viability, MTS reduction) [1] | cell migration (human neural crest cells) | NCC migration and NCC viability (human neural crest cells; [3]) | daphnia viability (Daphnia magna) | algae growth (Desmodesmus subspicatus; [4]) | Immobile Daphnia after 48 h (Daphnia magna; [5]) [%] | Immobile Daphnia after 48 h (Daphnia magna; [6]) [%] | Immobile Daphnia after 48 h (Daphnia magna; [7]) [%] | Immobile Daphnia after 48 h (Daphnia magna; [8]) [%] | Immobile Daphnia after 48 h (Daphnia magna; [9]) [%] | Immobile Daphnia after 48 h (Daphnia magna; [10]) [%] | concentration producing acute toxicity [1] [µM] | cell viability (human neural crest cells) | concentration range in which migration was far more affected than cell viability (human neural crest cells) [µM] | viability of human NCCs (human neural crest cells; [3])
O=[PH]1Oc2ccccc2-c2ccccc21 (stereo not shown) [DOPO, 9,10-dihydro-9-oxa-10-phosphaphenanthrene-10-oxide] | nor did they affect algae growth or daphnia viability | no signs of cell damage | inhibited neither cell migration | influenced neither NCC migration nor NCC viability | nor did they affect algae growth or daphnia viability | – | – | – | – | – | – | – | – | – | – | –
O=P1(NCCNP2(=O)Oc3ccccc3-c3ccccc32)Oc2ccccc2-c2ccccc21 (stereo not shown) [EDA-DOPO, 6,6′-(ethane-1,2-diylbis(azanediyl))bis(6H-dibenzo[c,e][1,2]oxaphosphinine-6-oxide)] | nor did they affect algae growth or daphnia viability | no signs of cell damage | inhibited neither cell migration | influenced neither NCC migration nor NCC viability | nor did they affect algae growth or daphnia viability | no effect | 0 | 0 | 0 | 0 | 5 | 10 | – | – | – | –
O=P1(OCCOP2(=O)Oc3ccccc3-c3ccccc32)Oc2ccccc2-c2ccccc21 (stereo not shown) [EG-DOPO, 6,6′-(ethane-1,2-diylbis(oxy))bis(6H-dibenzo[c,e][1,2]oxaphosphinine-6-oxide)] | – | – | concentration-dependent declines | – | – | inhibited algae growth | 0 | 0 | 10 | 0 | 5 | 10 | > 20 | concentration-dependent declines | 30 to 60 | –
O=P1(NCCOP2(=O)Oc3ccccc3-c3ccccc32)Oc2ccccc2-c2ccccc21 (stereo not shown) [ETA-DOPO, 6-(2-((6-oxido-6H-dibenzo[c,e][1,2]oxaphosphinin-6-yl)amino)ethoxy)-6H-dibenzo[c,e][1,2]oxaphosphinine 6-oxide] | – | – | concentration-dependent declines | – | – | no effect | 5 | 0 | 0 | 0 | 5 | 0 | > 20 | concentration-dependent declines | 30 to 60 | –
Brc1ccc(Oc2cc(Br)c(Br)cc2Br)c(Br)c1 [PBDE-99, reference compound] | – | no signs of cell damage | moderately, but significantly, inhibited | – | – | – | – | – | – | – | – | – | – | did not reduce cell viability | – | did not reduce the viability

From paper PMC5225203, “Multiparameter toxicity assessment of novel DOPO-derived organophosphorus flame retardants” (Archives of Toxicology, 2016)
